From patent publication US8299073B2, “P38 MAP kinase inhibitors” (Respivert Ltd., priority 2008, dated 2012)
pEC50, pIC50: −log10 of the molar value. Where two headings read alike, the source gives them in different places.

Columns and labels:
[1] = test system: Differentiated U937 cells; test: MTT assay (loss of cell viability); format: cell-based, human; conditions: for MTT 4 hr / MTT 24 hr: loss of cell viability, 10 ug/ml
[2] = test system: LPS-induced TNFα release in differentiated U937 cells; test: LPS-induced TNF alpha release in differentiated U937 cells; format: cell-based
[3] = test system: LPS-induced TNFα release in THP-1 cells; test: LPS-induced TNF alpha release in THP-1 cells; format: cell-based; conditions: Homo sapiens
[4] = target: T1, recombinant, phosphorylated p38 MAPK gamma (MAPK12:Millipore) (Homo sapiens, UniProt P53778); test: Enzyme inhibition assay (FRET, Z-LYTE), p38 MAPK gamma; format: biochemical; conditions: read-out: IC50 values P38γ enzyme
T1 construct: purchased Millipore
T1 sequence (P53778 1-367): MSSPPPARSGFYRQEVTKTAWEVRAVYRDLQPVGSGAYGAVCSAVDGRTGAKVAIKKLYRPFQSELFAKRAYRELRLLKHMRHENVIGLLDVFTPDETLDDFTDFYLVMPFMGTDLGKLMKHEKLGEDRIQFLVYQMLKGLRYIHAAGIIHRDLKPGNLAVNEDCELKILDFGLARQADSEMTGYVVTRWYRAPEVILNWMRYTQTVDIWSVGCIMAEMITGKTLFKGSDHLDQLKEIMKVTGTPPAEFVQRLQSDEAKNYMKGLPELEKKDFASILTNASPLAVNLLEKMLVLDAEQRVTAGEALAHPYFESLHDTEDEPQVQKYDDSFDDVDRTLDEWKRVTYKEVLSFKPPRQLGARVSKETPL

[5] = target: T2, p38 MAPK alpha (MAPK14: Invitrogen) (Homo sapiens, UniProt Q16539); test: Enzyme inhibition assay (FRET, Z-LYTE), p38 MAPK alpha, via activation of MAPKAP-K2; format: biochemical; conditions: read-out: IC50 values p38α enzyme
T2 construct: purchased Invitrogen

[6] = Homo sapiens; read-out: R-EC50 values d-U937 cells
[7] = THP-1, LPS-induced TNFα release, read-out: IC50 values THP-1 cells
[8] = Homo sapiens, read-out: R-EC50 values d-U937 cells
[9] = THP-1, read-out: IC50 values THP-1 cells

T2 sequence (Q16539 whole entry): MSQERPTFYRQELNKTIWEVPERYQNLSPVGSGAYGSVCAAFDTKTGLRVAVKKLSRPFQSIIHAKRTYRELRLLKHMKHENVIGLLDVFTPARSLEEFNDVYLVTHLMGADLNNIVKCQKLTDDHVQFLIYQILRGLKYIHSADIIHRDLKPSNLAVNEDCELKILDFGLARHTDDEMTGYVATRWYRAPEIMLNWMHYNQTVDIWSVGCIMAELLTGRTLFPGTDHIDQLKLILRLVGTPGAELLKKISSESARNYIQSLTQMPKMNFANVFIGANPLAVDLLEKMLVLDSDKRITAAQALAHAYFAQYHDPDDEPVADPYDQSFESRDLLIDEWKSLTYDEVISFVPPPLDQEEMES

SMILES	pEC50 [2, 6]	pIC50 [3, 7]	pIC50 [4]	pIC50 [5]	Differentiated U937 cells MTT Assay ([1]; 4, 24 h (10 μg/ml))	MTT 4 hr [1]	MTT 24 hr [1]	pEC50 [2, 8]	pIC50 [3, 9]
COCC(=O)Nc1cc(COc2ccc(NC(=O)Nc3cc(C(C)(C)C)nn3-c3ccc(C)cc3)c3ccccc23)ccn1 [Example 1, N-(4-((4-(3-(3-tert-Butyl-1-p-tolyl-1H-pyrazol-5-yl)ureido)naphthalen-1-yloxy)methyl)pyridin-2-yl)-2-methoxyacetamide]					Negative^2	− (− <30%)	− (− <30%)		
CNC(=O)Nc1cc(COc2ccc(NC(=O)Nc3cc(C(C)(C)C)nn3-c3ccc(C)cc3)c3ccccc23)ccn1 [Example 2, Methyl 4-((4-(3-(3-tert-butyl-1-p-tolyl-1H-pyrazol-5-yl)ureido)naphthalen-1-yloxy)methyl)pyridin-2-ylurea]	> 6.30	> 6.30	> 6.30			− (− <30%)	− (− <30%)		
Cc1ccc(-n2nc(C(C)(C)C)cc2NC(=O)Nc2ccc(OCc3ccnc(NC(=O)[C@H]4COCCN4)c3)c3ccccc23)cc1 [Example 10, (R)-N-(4-((4-(3-(3-tert-Butyl-1-p-tolyl-1H-pyrazol-5-yl)ureido)naphthalen-1-yloxy)methyl)pyridin-2-yl)morpholine-3-carboxamide]	> 8.00	> 8.00	> 5.30	> 6.30		− (− <30%)	− (− <30%)		
Cc1ccc(-n2nc(C(C)(C)C)cc2NC(=O)Nc2ccc(OCc3ccnc(NC(=O)[C@@H]4COCCN4)c3)c3ccccc23)cc1 [Example 11, (S)-N-(4-((4-(3-(3-tert-Butyl-1-p-tolyl-1H-pyrazol-5-yl)ureido)naphthalen-1-yloxy)methyl)pyridin-2-yl)morpholine-3-carboxamide]	> 8.00	> 8.00	> 5.30	> 8.00		− (− <30%)	− (− <30%)		
Cc1ccc(-n2nc(C(C)(C)C)cc2NC(=O)Nc2ccc(OCc3ccnc(NC(=O)N4CCN(C)CC4)c3)c3ccccc23)cc1 [Example 12, N-(4-((4-(3-(3-tert-Butyl-1-p-tolyl-1H-pyrazol-5-yl)ureido)naphthalen-1-yloxy)methyl)pyridin-2-yl)-4-methylpiperazine-1-carboxamide]			> 6.30	> 8.00		− (− <30%)	− (− <30%)	> 8.00	> 8.00
Cc1ccc(-n2nc(C(C)(C)C)cc2NC(=O)Nc2ccc(OCc3ccnc(NC(=O)N4CCOCC4)c3)c3ccccc23)cc1 [Example 13, N-(4-((4-(3-(3-tert-Butyl-1-p-tolyl-1H-pyrazol-5-yl)ureido)naphthalen-1-yloxy)methyl)pyridin-2-yl)morpholine-4-carboxamide]	> 8.00	> 6.30	> 6.30	> 8.00		− (− <30%)	− (− <30%)		
COCCNC(=O)CNC(=O)Nc1cc(COc2ccc(NC(=O)Nc3cc(C(C)(C)C)nn3-c3ccc(C)cc3)c3ccccc23)ccn1 [Example 15, 2-(3-(4-((4-(3-(3-tert-Butyl-1-p-tolyl-1H-pyrazol-5-yl)ureido)naphthalen-1-yloxy)methyl)pyridin-2-yl)ureido)-N-(2-methoxyethyl)acetamide]	> 6.30	> 8.00	> 6.30			− (− <30%)	− (− <30%)		
COCCNCC(=O)Nc1cc(COc2ccc(NC(=O)Nc3cc(C(C)(C)C)nn3-c3ccc(C)cc3)c3ccccc23)ccn1 [Example 25, N-(4-((4-(3-(3-tert-Butyl-1-p-tolyl-1H-pyrazol-5-yl)ureido)naphthalen-1-yloxy)methyl)pyridin-2-yl)-2-(2-methoxyethylamino)acetamide]	> 8.00	> 8.00	> 6.30			− (− <30%)	− (− <30%)		
CNC(=O)Nc1cnccc1COc1ccc(NC(=O)Nc2cc(C(C)(C)C)nn2-c2ccc(C)cc2)c2ccccc12 [Example 34, 1-(4-((3-Methylureidopyridin-4-yl)methoxy)naphthalen-1-yl)-3-(3-tert-butyl-1-p-tolyl-1H-pyrazol-5-yl)urea]	> 6.30	> 6.30	> 5.30			+ (+ >30% at 10 ug/ml)	− (− <30%)		
COCC(=O)Nc1cnccc1COc1ccc(NC(=O)Nc2cc(C(C)(C)C)nn2-c2ccc(C)cc2)c2ccccc12 [Example 35, N-(4-((4-(3-(3-tert-Butyl-1-p-tolyl-1H-pyrazol-5-yl)ureido)naphthalen-1-yloxy)methyl)pyridin-3-yl)-2-methoxyacetamide]			< 5.30			− (− <30%)	− (− <30%)		
COCCOCC(=O)Nc1cnccc1COc1ccc(NC(=O)Nc2cc(C(C)(C)C)nn2-c2ccc(C)cc2)c2ccccc12 [Example 36, N-(4-((4-(3-(3-tert-Butyl-1-p-tolyl-1H-pyrazol-5-yl)ureido)naphthalen-1-yloxy)methyl)pyridin-3-yl)-2-(2-methoxyethoxy)acetamide]			< 5.30			− (− <30%)	− (− <30%)	> 8.00	> 6.30
Cc1ccc(-n2nc(C(C)(C)C)cc2NC(=O)Nc2ccc(Oc3ccnc(NC(=O)CS(C)(=O)=O)c3)c3ccccc23)cc1 [Example 51, N-(4-(4-(3-(3-tert-Butyl-1-p-tolyl-1H-pyrazol-5-yl)ureido)naphthalen-1-yloxy)pyridin-2-yl)-2-(methylsulfonyl)acetamide]						− (− <30%)	+ (+ >30% at 10 ug/ml)	> 8.00	> 8.00

Further lines, with some results ahead:

pEC50 [2, 6]	pIC50 [3, 7]	pIC50 [4]	pIC50 [5]	SMILES	Differentiated U937 cells MTT Assay ([1]; 4, 24 h (10 μg/ml))	MTT 4 hr [1]	MTT 24 hr [1]	pEC50 [2, 8]	pIC50 [3, 9]
> 8.00	> 8.00	> 6.30	> 8.00	Cc1ccc(-n2nc(C(C)(C)C)cc2NC(=O)Nc2ccc(OCc3ccnc(NC(=O)C4CCOCC4)c3)c3ccccc23)cc1 [Example 3, N-(4-((4-(3-(3-tert-Butyl-1-p-tolyl-1H-pyrazol-5-yl)ureido)naphthalen-1-yloxy)methyl)pyridin-2-yl)tetrahydro-2H-pyran-4-carboxamide]		− (− <30%)	+ (+ >30% at 10 ug/ml)		
> 8.00	> 8.00	> 6.30	> 6.30	CO[C@@H](C)C(=O)Nc1cc(COc2ccc(NC(=O)Nc3cc(C(C)(C)C)nn3-c3ccc(C)cc3)c3ccccc23)ccn1 [Example 4, (S)-N-(4-((4-(3-(3-tert-Butyl-1-p-tolyl-1H-pyrazol-5-yl)ureido)naphthalen-1-yloxy)methyl)pyridin-2-yl)-2-methoxypropanamide]		− (− <30%)	− (− <30%)		
> 8.00	> 8.00	> 5.30	> 8.00	CO[C@H](C)C(=O)Nc1cc(COc2ccc(NC(=O)Nc3cc(C(C)(C)C)nn3-c3ccc(C)cc3)c3ccccc23)ccn1 [Example 5, (R)-N-(4-((4-(3-(3-tert-Butyl-1-p-tolyl-1H-pyrazol-5-yl)ureido)naphthalen-1-yloxy)methyl)pyridin-2-yl)-2-methoxypropanamide]		− (− <30%)	+ (+ >30% at 10 ug/ml)		
> 8.00	> 8.00	> 6.30	> 8.00	Cc1ccc(-n2nc(C(C)(C)C)cc2NC(=O)Nc2ccc(OCc3ccnc(NC(=O)CO)c3)c3ccccc23)cc1 [Example 7, N-(4-((4-(3-(3-tert-Butyl-1-p-tolyl-1H-pyrazol-5-yl)ureido)naphthalen-1-yloxy)methyl)pyridin-2-yl)-2-hydroxyacetamide]		− (− <30%)	+ (+ >30% at 10 ug/ml)		
> 8.00	> 8.00	> 5.30	> 6.30	CNC(C)(C)C(=O)Nc1cc(COc2ccc(NC(=O)Nc3cc(C(C)(C)C)nn3-c3ccc(C)cc3)c3ccccc23)ccn1 [Example 8, N-(4-((4-(3-(3-tert-Butyl-1-p-tolyl-1H-pyrazol-5-yl)ureido)naphthalen-1-yloxy)methyl)pyridin-2-yl)-2-methyl-2-(methylamino)propanamide]		− (− <30%)	+ (+ >30% at 10 ug/ml)		
> 8.00	> 8.00	> 6.30	> 8.00	CN[C@@H](C)C(=O)Nc1cc(COc2ccc(NC(=O)Nc3cc(C(C)(C)C)nn3-c3ccc(C)cc3)c3ccccc23)ccn1 [Example 9, (S)-N-(4-((4-(3-(3-tert-Butyl-1-p-tolyl-1H-pyrazol-5-yl)ureido)naphthalen-1-yloxy)methyl)pyridin-2-yl)-2-(methylamino)propanamide]		− (− <30%)	+ (+ >30% at 10 ug/ml)		
